Test system: NFE2L1 pathway
Assay: 3×PSMA4-ARE-LUC dual luciferase reporter assay in HEK293 cells
Assay type: cell-based, human
Details: Homo sapiens; 5 μM, 16 h, HEK293, luminescence relative to DMSO-treated cells; read-out: NFE2L1 activation [5 μM]
From the text: In our previous work,[43] we developed a library of NFE2L1 stimulators using a cell-based luciferase reporter assay. This system was based on three tandem copies of the antioxidant response element (ARE) derived from the NFE2L1 target gene proteasome subunit alpha type-4 (3xPSMA4, PSMA4-ARE-LUC). It was designed to detect the proteasome “bounce-back” response induced by proteasome inhibitors such as MG132 or bortezomib.[22,43,45,46] The reporter assay was adapted to a 384-well format and used to evaluate a new set of RUN compounds designed around the structural framework of the RUN-47 activator. We focused on identifying compounds that increased the 3×PSMA4-ARE-LUC signal (Fig. 1A), while simultaneously assessing cytotoxicity (see the SI, Fig. S2). […] In contrast, thiourea- and urea-containing derivatives generally produced only weak to intermediate responses, rarely exceeding a fold change of 7.
Fig. 1 (A) Targeted library screening of RUN compounds using the 3×PSMA4-ARE-LUC dual reporter assay in HEK293 cells. Cells were exposed to RUN compounds (5 μM) for 16 hours, and luciferase activity was measured. Data are presented as the mean ± SD from three independent experiments (n = 3). Results are shown as a fold change in luminescence relative to DMSO-treated cells. Selected hit compounds are highlighted in distinct colours. (B) RUN-89 specifically activates the NFE2L1 pathway. The DDI2 knockout (KO) and parental (WT) HCT116 cells were transfected with the 3×PSMA4-ARE-LUC reporter and treated with 0.5 μM bortezomib (BTZ) and 5 μM RUN-89 for 16 hours. Data are presented as the Geomean ± GeoSD of three independent experiments (n = 3). Statistical analysis was performed on log2-transformed values using two-way repeated-measures ANOVA followed by Šídak's multiple comparison test. (C) RUN-89 selectively triggers downstream signaling events associated with NFE2L1 gene expression. HEK293 cells were transfected with lipid nanoparticles (LNPs) carrying siRNAs targeting NFE2L1 or NFE2L2. LNPs formulated with non-targeting siRNA served as a negative control. Following 24 hours of incubation, cells were treated with 7.5 μM RUN-89 or DMSO (vehicle) for an additional 16 hours. Expression of the proteasomal subunit gene PSMC4 was then quantified by RT-qPCR. Data are shown as the Geomean ± GeoSD from three independent biological replicates (n = 3). Log2-transformed data were analyzed using two-way repeated-measures ANOVA with the Geisser–Greenhouse correction, followed by Tukey's multiple comparison test with individual variances computed for each comparison. Additional results for NFE2L1, NFE2L2, PSMB7, and PSMD12 are presented in SI Fig. S10.
Figure S1: Concentration–response of luciferase cell-based assay (PSMA4-ARE-luc2P reporter) on treatment with RUN-81, RUN-89, and RUN-94. Concentration is plotted on the X-axis. Dose–response relationships were analyzed using a four-parameter logistic curve (4PL), or a bell-shaped dose-response curve, both with weighting 1/Y^2. Dotted lines represent 95% confidence bands. Calculated EC₅₀ values, curve parameters, and asymmetrical confidence intervals are summarized in the accompanying table . Data are presented as mean ± SD from four independent experiments (n=4).
(§1) 2 Biology Experimental Procedures
(§2) Safety statement: No unexpected or unusually high safety hazards were encountered. […]
Most of the cell lines were cultured in Dulbecco's Modified Eagle Medium (DMEM) enriched with 10% fetal bovine serum (FBS) and 2 mM L-glutamine, under standard conditions of 37 °C with 5% CO₂. DNA transfection was performed with Lipofectamine 2000, following the manufacturer's instructions. Transgenic cells were then selected with either G418 (400 µg/mL) or hygromycin B (450 µg/mL), based on the selection marker encoded by the plasmid used. Cell viability was evaluated using the […]

Compound | fold induction at 5 µM
CCOC(=O)CCNC(=O)N1C/C(=C\c2ccc(OC)c(OC)c2)C(=O)/C(=C/c2ccc(OC)c(OC)c2)C1 [RUN-75] | 6.8
COc1ccc(/C=C2\CC(NC(=O)Cc3c[nH]cn3)C/C(=C\c3ccc(OC)c(OC)c3)C2=O)cc1OC (stereo not shown) [RUN-95] | 2
COc1ccc(/C=C2\CC(NC(=O)C34CCN(CC3)CC4)C/C(=C\c3ccc(OC)c(OC)c3)C2=O)cc1OC (stereo not shown) [RUN-87] | 1
COc1ccc(/C=C2\CC(NC(=O)CN3CCOCC3)C/C(=C\c3ccc(OC)c(OC)c3)C2=O)cc1OC.O=C(O)C(F)(F)F (stereo not shown) [RUN-98] | 2.1
COc1ccc(/C=C2\CN(C(=O)C3CCCC3)C/C(=C\c3ccc(OC)c(OC)c3)C2=O)cc1OC [RUN-103] | 9.4
CCOC(=O)CNC(=O)N1C/C(=C\c2ccc(OC)c(OC)c2)C(=O)/C(=C/c2ccc(OC)c(OC)c2)C1 [RUN-74] | 7.1
COc1ccc(/C=C2\CC(NC(=O)C3CCC(=O)N3)C/C(=C\c3ccc(OC)c(OC)c3)C2=O)cc1OC (stereo not shown) [RUN-97] | 1.6
COc1cccc(NC(=O)N2C/C(=C\c3ccc(OC)c(OC)c3)C(=O)/C(=C/c3ccc(OC)c(OC)c3)C2)c1 [RUN-76] | 6.8
CCN(CC)CC(=O)N1C/C(=C\c2ccc(OC)c(OC)c2)C(=O)/C(=C/c2ccc(OC)c(OC)c2)C1.O=C(O)C(F)(F)F [RUN-116] | 3.1
COc1ccc(/C=C2/C(=O)/C(=C/c3ccc(OC)c(OC)c3)C3CCC2N3)cc1OC [RUN-78] | 1.4
COc1ccc(/C=C2\CN(C(=S)NCCN3CCOCC3)C/C(=C\c3ccc(OC)c(OC)c3)C2=O)cc1OC [RUN-77] | 2.5
COc1ccc(/C=C2/C(=O)/C(=C/c3ccc(OC)c(OC)c3)C3CCC2N3Cc2ccc(C#N)cc2)cc1OC [RUN-80] | 2
COc1ccc(/C=C2/C(=O)/C(=C/c3ccc(OC)c(OC)c3)C3CCC2N3CCN2CCOCC2)cc1OC [RUN-79] | 0.9
COc1ccc(/C=C2\CN(C(=O)CCN(C)C)C/C(=C\c3ccc(OC)c(OC)c3)C2=O)cc1OC.O=C(O)C(F)(F)F [RUN-114] | 3.1
COc1ccc(/C=C2\CN(C(=O)CCCN)C/C(=C\c3ccc(OC)c(OC)c3)C2=O)cc1OC [RUN-115] | 1.8
COc1ccc(/C=C2\CC(NC(=O)[C@@H]3CCCN3)C/C(=C\c3ccc(OC)c(OC)c3)C2=O)cc1OC.O=C(O)C(F)(F)F (stereo partly shown) [RUN-96] | 2.2
COc1ccc(/C=C2\CN(C(=O)CCCN(C)C)C/C(=C\c3ccc(OC)c(OC)c3)C2=O)cc1OC.O=C(O)C(F)(F)F [RUN-106] | 2.8

Test system: HEK293 cells
Assay: alamarBlue cytotoxicity assessment in HEK293 cells
Assay type: cell-based, human
Details: HEK293, alamarBlue, 16 h; concentration not given
Experimental: Figure S2: Concentration-dependent cytotoxicity assessment of RUN compounds.
HEK293 cells were treated for 16 hours with increasing concentrations of RUN compounds (1.25 µM; 2.5 µM; 5; 7.5 and 10 µM) or DMSO (negative control). Cell viability was determined using the alamarBlue assay following the protocol of Riss.(1) Data are presented as means ± SD from three independent experiments (n = 3). Statistical analysis was done using repeated measures one-way ANOVA with Geisser–Greenhouse correction, followed by Dunnett’s multiple comparisons test. *p<0.05. Detailed results of the analysis are shown in […]
(1 picture or pasted object on this page, not shown here)
as §1, §2
Cell lines were sourced from the ATCC (USA) and/or ECACC (UK), namely HCT116 (human colorectal carcinoma), ATCC CCL-247 (RRID:CVCL_0291), HEK-293 (human embryonic kidney), ATCC CRL-1573 (RRID:CVCL_0045), SH-SY5Y (human neuroblastoma), ATCC CRL-2266 (RRID:CVCL_0019). The characteristics of DDI2 knockout cells derived from HCT116 cells have been described previously (Sedlacek et al., 2025). All cell lines were tested for mycoplasma contamination. Most of the cell lines were cultured in Dulbecco's Modified Eagle Medium (DMEM) enriched with 10% fetal bovine serum (FBS) and 2 mM L-glutamine, under standard conditions of 37 °C with 5% CO₂. DNA transfection was performed with Lipofectamine 2000, following the manufacturer's instructions. Transgenic cells were then selected with either G418 (400 µg/mL) or hygromycin B (450 µg/mL), based on the selection marker encoded by the plasmid used. […]

Compound | Tox [% of ctrl.]
CCOC(=O)CCNC(=O)N1C/C(=C\c2ccc(OC)c(OC)c2)C(=O)/C(=C/c2ccc(OC)c(OC)c2)C1 [RUN-75] | 82% of ctrl.
COc1ccc(/C=C2\CC(NC(=O)Cc3c[nH]cn3)C/C(=C\c3ccc(OC)c(OC)c3)C2=O)cc1OC (stereo not shown) [RUN-95] | 96% of ctrl.
COc1ccc(/C=C2\CC(NC(=O)CN3CCOCC3)C/C(=C\c3ccc(OC)c(OC)c3)C2=O)cc1OC.O=C(O)C(F)(F)F (stereo not shown) [RUN-98] | 102% of ctrl.
COc1ccc(/C=C2\CN(C(=O)C3CCCC3)C/C(=C\c3ccc(OC)c(OC)c3)C2=O)cc1OC [RUN-103] | 80% of ctrl.
CCOC(=O)CNC(=O)N1C/C(=C\c2ccc(OC)c(OC)c2)C(=O)/C(=C/c2ccc(OC)c(OC)c2)C1 [RUN-74] | 81% of ctrl.
COc1ccc(/C=C2\CC(NC(=O)C3CCC(=O)N3)C/C(=C\c3ccc(OC)c(OC)c3)C2=O)cc1OC (stereo not shown) [RUN-97] | 99% of ctrl.
COc1cccc(NC(=O)N2C/C(=C\c3ccc(OC)c(OC)c3)C(=O)/C(=C/c3ccc(OC)c(OC)c3)C2)c1 [RUN-76] | 88% of ctrl.
CCN(CC)CC(=O)N1C/C(=C\c2ccc(OC)c(OC)c2)C(=O)/C(=C/c2ccc(OC)c(OC)c2)C1.O=C(O)C(F)(F)F [RUN-116] | 78% of ctrl.
COc1ccc(/C=C2\CN(C(=S)NCCN3CCOCC3)C/C(=C\c3ccc(OC)c(OC)c3)C2=O)cc1OC [RUN-77] | 84% of ctrl.
COc1ccc(/C=C2\CN(C(=O)CCN(C)C)C/C(=C\c3ccc(OC)c(OC)c3)C2=O)cc1OC.O=C(O)C(F)(F)F [RUN-114] | 92% of ctrl.
COc1ccc(/C=C2\CN(C(=O)CCCN)C/C(=C\c3ccc(OC)c(OC)c3)C2=O)cc1OC [RUN-115] | 85% of ctrl.
COc1ccc(/C=C2\CC(NC(=O)[C@@H]3CCCN3)C/C(=C\c3ccc(OC)c(OC)c3)C2=O)cc1OC.O=C(O)C(F)(F)F (stereo partly shown) [RUN-96] | 93% of ctrl.
COc1ccc(/C=C2\CN(C(=O)CCCN(C)C)C/C(=C\c3ccc(OC)c(OC)c3)C2=O)cc1OC.O=C(O)C(F)(F)F [RUN-106] | 75% of ctrl.

Same assay, conditions: human, 16 h

Compound | Tox [% of ctrl.]
COc1ccc(/C=C2\CC(NC(=O)C34CCN(CC3)CC4)C/C(=C\c3ccc(OC)c(OC)c3)C2=O)cc1OC (stereo not shown) [RUN-87] | 101% of ctrl.
COc1ccc(/C=C2/C(=O)/C(=C/c3ccc(OC)c(OC)c3)C3CCC2N3)cc1OC [RUN-78] | 89% of ctrl.
COc1ccc(/C=C2/C(=O)/C(=C/c3ccc(OC)c(OC)c3)C3CCC2N3Cc2ccc(C#N)cc2)cc1OC [RUN-80] | 98% of ctrl.
COc1ccc(/C=C2/C(=O)/C(=C/c3ccc(OC)c(OC)c3)C3CCC2N3CCN2CCOCC2)cc1OC [RUN-79] | 104% of ctrl.
